Patent US20140315738A1, “MARINE MEDAKA GENES RESPONDING TO THE EXPOSURE OF ENDOCRINE-DISRUPTING CHEMICALS, AND METHOD FOR DIAGNOSING AN AQUATIC ECO-SYSTEM CONTAMINATION USING SAME” (priority 2011, published 2014)

Test system: Javanese medaka (Oryzias javanicus) livers
Assay: real-time quantitative PCR of liver gene expression after exposure to BPA
Format: in vivo
Conditions: 76 μg/L, 48 hr, β-actin control gene
Experimental: To 3 L beaker with 2 L filtered seawater therein, 10 male Javanese medaka bred in culture water tank were transported each time, and acclimated for 24 hr. […] Additionally, five Javanese medaka of Example <1-1> were exposed to BPA (76 μg/L) for 48 hr. […] The Javanese medaka was transported to ice water, one at a time, which momentarily stunned it, followed by beheading and evisceration and liver removal.
Primers for real-time quantitative PCR (RT-PCR) for the above genes were designed and synthesized, and sequences of the primers of the genes for real time quantitative PCT are listed in Table 6 below.
With RNA template extracted with the method of Example <2-1>, cDNA was synthesized using AB High Capacity RAN-to-cDNA Kit (Applied Biosystems, USA). RNA in the amount of 1 μg was seeded, added with distilled water and titrated to 9 μl. 2×RT buffer (10 μl), and 20× enzyme Mix 1 μl were mixed well, centrifuged and precipitated, and allowed to react at 37° C. for 60 min. The reactant was heated at 95° C. for 5 min, after which reaction was completed. The synthesized cDNA was stored at −20° C.
To the 0.5 μg synthesized cDNA (corresponding to approximately 10 ng/μl), 0.8 primer pairs of corresponding genes (10 pmol/μl), and 2 SYBR1 mixture (10 μl) were added. The final amount was titrated to 20 μl using distilled water. At temperature condition of 95° C. 10 min, 95° C. 30 sec, 60° C. 30 sec, 72° C. 30 sec, 40 cycles of PCR were conducted.
CT values of the respective samples after exposure to BPA between control genes (β-actin) and genes of interest were compared with each other, and the relative expression differences of the genes of interest were quantified into relative values according to Relative Standard Curve (Table 7).

CC(C)(c1ccc(O)cc1)c1ccc(O)cc1 [BPA, Bisphenol A]
Fold difference, Apolipoprotein E1 (AP): +2.30 fold | Fold difference, Arylamine N-acetyl transferase (ANAT): −1.69 fold | Fold difference, Basigin (Bsgn): +4.25 fold | Fold difference, C1q-like adipose specific protein (C-ASP): −2.17 fold | Fold difference, Calcium binding protein P22 (CBP-P22): +1.19 fold | Fold difference, Catalase (Cat): −1.49 fold | Fold difference, Ceruloplasmin (Cer): +2.09 fold | Fold difference, Chitinase (Chi): −5.56 fold | Fold difference, Choline kinase (Chka): +4.18 fold | Fold difference, Choriogenin L (ChL): +50.00 fold | Fold difference, Complement component C8 beta (C8): −1.37 fold | Fold difference, Complement factor B/C2-B (CF-B/C2): −2.27 fold | Fold difference, Delta 6-desaturase (FD6D): +1.43 fold | Fold difference, Delta-6 fatty acyl desaturase (FADSD6): −1.39 fold | Fold difference, Glutaminase (Gls): −1.35 fold | Fold difference, Glutathione S-transferase (Gst): −1.85 fold | Fold difference, Hepcidin (Hep): −1.14 fold | Fold difference, Leukocyte elastase inhibitor (LE): +1.12 fold | Fold difference, Lipoprotein lipase (LPL): +1.11 fold | Fold difference, N-acetyltransferase (NAT13): −2.50 fold | Fold difference, Plasminogen (Plg): +1.25 fold | Fold difference, Retinol binding protein 4 (RBP4): +1.12 fold | Fold difference, Ring finger protein 141 (RFP): +1.23 fold | Fold difference, TBT-binding protein (TBT-bp): −1.66 fold | Fold difference, Transferrin (TF): −1.30 fold | Fold difference, Uridine phosphorylase 2 (Upp2): −1.72 fold | Fold difference, Vitellogenin 1 (Vit1): −100.00 fold | Fold difference, Warm temperature acclimation (C243) (Wap65): +1.07 fold
